Results as given in patent US12419948B2, “Immunogenic compositions and use thereof” (priority 2020, dated 2025).
Where two headings read alike, the source gives them in different places. Where no end group is shown, it is not given here.

How the values were obtained:
Assay in all cases: biochemical
Format in all cases: binding
HLA-B*18:01 = molecular target: T1, HLA-B*18:01 (Homo sapiens, UniProt P01889, A329T/A93T/A95T/C349S/D201E/D54G/D98Y/E176V/E187T/E204Q/E69T/K202T/Q94N/R155S/R180L/S121R/V306I/Y140S/Y195H/Y33H/Y91S)
T1 construct: made in house

HLA-B*51:01 = molecular target: T2, HLA-B*51:01 (Homo sapiens, UniProt P01889, A329T/A93T/A95T/C349S/D138N/D201E/D98Y/E187L/E204Q/E69T/G107R/I218V/K202T/L105A/L119W/N104I/Q94N/R106L/R155S/R180L/S101N/S121T/S35A/S48A/V306I/V36M/Y195H/Y91F); settings: synthetic peptide, purified MHC
T2 construct: made in house

HLA-B*44:02 = molecular target: T3, HLA-B*44:02 (Homo sapiens, UniProt P01889, A223V/A65T/A93T/A95T/D201E/D98Y/E176V/E187L/E204Q/E69K/G107R/H137Y/K202T/L105A/L119I/N104T/N87E/Q56L/Q94N/R106L/R155S/R180D/S101N/S121R/S35A/S48T/T118I/V36M/W191S/Y140D/Y91S); settings: synthetic peptide, purified MHC
T3 construct: made in house

HLA-B*15:01 = molecular target: T4, HLA-B*15:01 (Homo sapiens, UniProt P01889, A329T/A93T/A95T/C349S/D201E/D98Y/E187L/E204Q/E69M/E70A/K202T/N87E/Q94N/R155S/R180W/S121R/S35A/S48A/V306I/V36M/Y140S/Y91S)
T4 construct: made in house

HLA-A*01:01 = molecular target: T5, HLA-A*01:01 (Homo sapiens, UniProt P04439, A114D/A174V/A182V/D101N/D185E/E176A/E190D/L180R/Q94H/R68K/S129P/T187R/V100A/V91M/W191G); settings: synthetic peptide, purified MHC
T5 construct: made in house

HLA-A*26:01 = HLA-A*26:01 (Homo sapiens, UniProt P04439, A114D/A173T/A270S/D101N/D185E/E277Q/E87N/F33Y/G231S/I121R/I218V/K168Q/L180W/L300P/L318F/P208A/P217A/Q86R/Q94H/R138Q/S129P/T187R/T323A/T345S/V100A/V358M)
HLA-B*44:03 = molecular target: T6, HLA-B*44:03 (Homo sapiens, UniProt P01889, A223V/A65T/A93T/A95T/D201E/D98Y/E176V/E187L/E204Q/E69K/G107R/H137Y/K202T/L105A/L119I/N104T/N87E/Q56L/Q94N/R106L/R155S/R180L/S101N/S121R/S35A/S48T/T118I/V36M/W191S/Y140D/Y91S); settings: synthetic peptide, purified MHC
T6 construct: made in house

HLA-A*02:01 = molecular target: T7, HLA-A*02:01 (Homo sapiens, UniProt P04439, D140Y/D185E/D98H/E176V/E277Q/G131W/G231S/I119V/I121R/I166T/I218V/L300P/L318F/N151K/N90K/P208A/P217A/Q86G/Q94H/R138H/R169H/T345S)
T7 construct: made in house

[1] = read-out: Binding in vitro (IC50, [nM])

DEFVVVTV
IC50 (HLA-B*18:01; [1]): < 0.5 nM

KNIDGYFKIY
IC50 (HLA-B*18:01; [1]): > 70000 nM

APRITFGGP [Peptide 29]
IC50 (HLA-B*51:01): > 70 µM | IC50 (HLA-B*44:02): > 70 µM | IC50 (HLA-B*15:01): > 70 µM | IC50 (HLA-B*18:01): > 70000 nM | IC50 (HLA-A*01:01): > 70 µM | IC50 (HLA-A*26:01): > 70 µM | IC50 (HLA-B*44:03): > 70 µM

GLITLSYHL
IC50 (HLA-A*02:01; HLA allele A0201, peptide detected in HEK293T, IC50 <500 nM indicates binding, read-out: Binding in vitro (IC50, [nM])): < 0.5 nM | IC50 (HLA-A*02:01; read-out: IC50, binding to HLA-A*02:01): < 0.5 nM
